Laboratory results published in article PMC12021911, “Comparative evaluation of antimicrobial peptides: effect on formation, metabolic activity and viability of Klebsiella pneumoniae biofilms” (Frontiers in Microbiology, 2025).
Converted amounts (≈) assume the structure as drawn. Like-named read-outs stand apart in the source and are kept apart here.

Key:
Type in all cases: cell-based, Klebsiella pneumoniae
K. pneumoniae 17349 [1] = experiment: microbe, parasite or virus in culture
Experimental: (§1) Three different strains of K. pneumoniae were investigated in this study which were originally isolated from a human, a pig and a dog (Table 2) and characterized in previous studies ([Krieger et al., 2021]; [Krieger et al., 2022]). Minimum inhibitory concentration (MIC) values were determined according to EUCAST guidelines by microdilution test and are shown in Supplementary Table S1.
(§2) Table S1 Minimum inhibitory concentration (MIC) values of the three K. pneumoniae strains,
(§3) determined according to EUCAST guidelines by microdilution test.
(§4) MIC [µg/mL] of indicated antibiotics

K. pneumoniae IMT40061 [2] = experiment: microbe, parasite or virus in culture
Experimental: as §1, §2, §3, §4

[3] = tested on: K. pneumoniae 42KC-108224-1; experiment: microbe, parasite or virus in culture
Experimental: as §1, §2, §3, §4

[4] = tested on: all three K. pneumoniae strains; experiment: crystal violet assay, biofilm formation, statements on all three strains
Experimental: (§5) To quantify biofilm formation, the crystal violet assay was done as described previously ([Sager et al., 2015]). Specifically, bacteria were grown in 10 mL BHI broth for 18 h at 37°C on a shaking platform (120 rpm). Subsequently 100 μL of a 1:100 dilution of this overnight culture in BHI was transferred to 96-well plates and incubated for 24 h at 37°C. Wells with BHI broth only were used as blank. Five replicates were investigated per strain. After incubation the suspension was discarded, plates were washed three times with tap water and air-dried. Subsequently, 100 μL of 1% crystal violet (T123.1, Th. Geyer GmbH & Co. KG, Renningen, Germany) in distilled water was added to each well and incubated for 15 min at room temperature before rinsing the plates four times with tap water and air-drying them again. One hundred μL of 99% ethanol were added to each well for 15 min at room temperature to dissolve the remaining crystal violet. Subsequently, the optical density at 540 nm (OD540) was measured using the BioTek Synergy H1 microplate reader to quantify biofilm mass remaining in the wells. OD values of the blank were subtracted from all the samples. Each experiment was conducted three times.
(§6) To determine the effect of the AMPs on biofilm formation of K. pneumoniae, a standardized bacterial suspension and serial dilutions of antimicrobial agents were incubated together as conducted for determination of planktonic growth. After incubation the crystal violet assay was performed as described above. The percentage of biofilm formation was calculated based on the growth control. The experiment was conducted at least three times.

K. pneumoniae 17349 [5] = experiment: fluorescence assay on mature biofilms (SYTO 9 / propidium iodide); conditions: 24 h treatment of mature biofilm; concentration not given
K. pneumoniae IMT40061 [6] = experiment: crystal violet assay, biofilm formation upon AMP treatment; conditions: 16 μg/mL; 22 h, 37°C, 50% BHI; mean, n ≥ 3
Experimental: as §5, §6

[7] = tested on: K. pneumoniae 42KC-108224-1; experiment: as above; conditions: for biofilm mass (crystal violet), percentage of the growth control: 16 μg/mL, 22 h, 37°C, 50% BHI, mean, n ≥ 3
Experimental: as §5, §6

[8] = tested on: K. pneumoniae 42KC-108224-1; experiment: fluorescence assay on mature biofilms (SYTO 9 / propidium iodide); conditions: 24 h treatment of mature biofilm; strongest reduction, concentration not given
Experimental: The proportion of living and dead bacteria was determined using the fluorescence assay FilmTracer™ LIVE/DEAD biofilm viability kit (L10316, Life Technologies GmbH, Darmstadt, Germany). A bacterial count of 2 × 10^7 CFU/mL was inoculated in 50% BHI broth, 100 μL were added to a 96-well plate in duplicate and plates were incubated for 22 h at 37°C. Wells containing only BHI broth were used as blank. After incubation, the supernatant was discarded and plates were washed three times with sterile PBS. […] After incubation for 24 h at 37°C and washing three times with sterile PBS, 50 μL filter-sterilized water containing 0.15 μL each of SYTO™ 9 stain and propidium iodide stain was added to each well. Plates were incubated for 20 min at room temperature in the dark. The staining solution was discarded and the plates were washed three times with sterile PBS. The fluorescence intensity of the SYTO™ 9 stain (λex = 470 nm, λem = 500 nm) and the propidium iodide stain (λex = 490 nm, λem = 635 nm) were measured on a BioTek Synergy H1 microplate reader and corrected for the blank values. The percentage of fluorescence intensity was calculated based on the negative control. The SYTO™ 9/propidium iodide ratio was calculated. The experiment was conducted at least three times.

[9] = EUCAST guidelines, microdilution test
[10] = Klebsiella pneumoniae, 17349, EUCAST guidelines, microdilution test, read-out: MIC
[11] = Klebsiella pneumoniae, IMT40061, EUCAST guidelines, microdilution test, read-out: MIC
[12] = Klebsiella pneumoniae, 42KC1082241, EUCAST guidelines, microdilution test, read-out: MIC
[13] = Klebsiella pneumoniae, IMT40061
[14] = Klebsiella pneumoniae, 42KC1082241

Question: For Ampicillin/Sulbactam, which MIC (K. pneumoniae 17349 [1]; [9]) is on record?
Answer: 1/4

Question: And the MIC (K. pneumoniae IMT40061 [2]; [9])?
Answer: > 32/4

Question: What about the MIC [3, 9] of the same molecule?
Answer: 8/4

Question: Which MIC (K. pneumoniae 17349 [1]; [10]) does the source give for `CCN1CCN(C(=O)N[C@@H](C(=O)N[C@@H]2C(=O)N3[C@@H]2SC(C)(C)[C@@H]3C(=O)O)c2ccccc2)C(=O)C1=O` [Piperacillin] here?
Answer: 2 µg/mL (≈ 3.86 µM)

Question: What about the MIC (K. pneumoniae IMT40061 [2]; [11]) of the same molecule?
Answer: > 64 µg/mL

Question: What about the MIC [3, 12] of the same molecule?
Answer: 4 µg/mL (≈ 7.73 µM)

Question: Which results are given for `C[C@@H](O)[C@H]1C(=O)N2C(C(=O)O)=C(SCCN=CN)C[C@H]12` [Imipenem]?
Answer: MIC (K. pneumoniae 17349 [1]; Klebsiella pneumoniae, 17349): < 0.125 µg/mL; MIC (K. pneumoniae IMT40061 [2]; [13]): < 0.125 µg/mL; MIC [3, 14]: < 0.125 µg/mL

Question: Which results are given for “GIINTLQKYYCRVRGGRCAVLSCLPKEEQIGKCSTRGRKCCRRKK [hbD3, Human defensin, purchased from PeptaNova GmbH]”?
Answer: biofilm mass, % of the untreated control ([4]; all three strains, concentration not given): less than 40%; biofilm mass reduced to ([4]; concentration and strain not given): ≤ 28%

Question: With “VRLIVAVRIWRR-NH2 [compound 1018, Synthetic antimicrobial peptide]” as the molecule, how does the “viable biofilm mass (SYTO™ 9)” value (K. pneumoniae 17349 [5]) read?
Answer: less than 30%

Question: And the “biofilm mass (crystal violet), percentage of the growth control” value (K. pneumoniae IMT40061 [6])?
Answer: 61%

Question: And the “biofilm mass (crystal violet), percentage of the growth control” value [7]?
Answer: 54%

Question: What about the “viable biofilm mass (SYTO™ 9)” value [8] of the same molecule?
Answer: less than 30%

Question: Which results are given for `NC[C@H]1O[C@H](O[C@H]2[C@H](O)[C@@H](O[C@H]3O[C@H](CO)[C@@H](O)[C@H](N)[C@H]3O)[C@H](N)C[C@@H]2N)[C@H](N)C[C@@H]1O` [Tobramycin]?
Answer: MIC (K. pneumoniae 17349 [1]; [10]): < 0.125 µg/mL; MIC (K. pneumoniae IMT40061 [2]; [11]): 4 µg/mL (≈ 8.56 µM); MIC [3, 12]: 0.25 µg/mL (≈ 0.535 µM)

Question: With `CC1(C)S[C@@H]2[C@H](NC(=O)[C@H](N)c3ccccc3)C(=O)N2[C@H]1C(=O)O` [Ampicillin] as the molecule, how does the MIC (K. pneumoniae 17349 [1]; [10]) read?
Answer: 16 µg/mL (≈ 45.8 µM)

Question: What about the MIC (K. pneumoniae IMT40061 [2]; [11]) of the same molecule?
Answer: > 32 µg/mL

Question: And the MIC [3, 12]?
Answer: > 32 µg/mL

Question: `O=C(O)c1cn(C2CC2)c2cc(N3CCNCC3)c(F)cc2c1=O` [Ciprofloxacin] was tested. Which MIC (K. pneumoniae 17349 [1]; Klebsiella pneumoniae, 17349) did it give?
Answer: < 0.0312 µg/mL

Question: What about the MIC (K. pneumoniae IMT40061 [2]; [11]) of the same molecule?
Answer: > 4 µg/mL

Question: What about the MIC [3, 14] of the same molecule?
Answer: 0.0625 µg/mL (≈ 0.189 µM)

Question: For `C[C@@H](O)[C@H]1C(=O)N2C(C(=O)O)=C(S[C@@H]3CN[C@H](C(=O)N(C)C)C3)[C@H](C)[C@H]12` [Meropenem], which MIC (K. pneumoniae 17349 [1]; Klebsiella pneumoniae, 17349) is on record?
Answer: < 0.125 µg/mL

Question: What about the MIC (K. pneumoniae IMT40061 [2]; [13]) of the same molecule?
Answer: < 0.125 µg/mL

Question: What about the MIC [3, 14] of the same molecule?
Answer: < 0.125 µg/mL

Question: What does the source list for “VDKPPYLPRPRPPROIYNO-NH2 [Onc72, Insect-derived proline-rich AMP, derivate of Oncopeltus antibacterial peptide 4]”?
Answer: biofilm mass (crystal violet), percentage of the growth control [7]: 36%; biofilm formation inhibited to ([7]; concentration not given): 36%; viable biofilm mass (SYTO™ 9) [8]: 51%

Question: `CNC(C)C1CCC(N)C(OC2C(N)CC(N)C(OC3OCC(C)(O)C(NC)C3O)C2O)O1` (stereo not drawn) [Gentamicin] was tested. Which MIC (K. pneumoniae 17349 [1]; [10]) did it give?
Answer: 0.25 µg/mL (≈ 0.523 µM)

Question: What about the MIC (K. pneumoniae IMT40061 [2]; [11]) of the same molecule?
Answer: 0.5 µg/mL (≈ 1.05 µM)

Question: What about the MIC [3, 12] of the same molecule?
Answer: < 0.125 µg/mL

Question: What does the source list for `COc1c(N2C[C@@H]3CCCN[C@@H]3C2)c(F)cc2c(=O)c(C(=O)O)cn(C3CC3)c12` [Moxifloxacin]?
Answer: MIC (K. pneumoniae 17349 [1]; [10]): 0.25 µg/mL (≈ 0.623 µM); MIC (K. pneumoniae IMT40061 [2]; [11]): > 4 µg/mL; MIC [3, 12]: 0.0625 µg/mL (≈ 0.156 µM)
